Measurements published in patent publication US20100240653A1, “BIPHENYL SULFONYL AND PHENYL-HETEROARYL SULFONYL MODULATORS OF THE HISTAMINE H3-RECEPTOR USEFUL FOR THE TREATMENT OF DISORDERS RELATED THERETO” (priority 2006, published 2010).

Key:
Histamine H3-receptor = Histamine H3-receptor (Rattus norvegicus, UniProt Q9QYN8); assay: [3H]N-alpha-methyl-histamine competitive histamine H3-receptor binding assay (rat brain cortex membranes); settings: whole rat brain cortex membranes, [3H]-N-α-methyl-histamine 1 nM
Description: The histamine receptor binding assay was conducted using standard laboratory procedures as described below. A crude membrane fraction was prepared from whole rat brain cortex using a polytron to homogenize the tissue followed by differential centrifugation in a HEPES-based buffer containing protease inhibitors. Membranes where frozen at −80° C. until needed. Frozen membranes were thawed and resuspended in ice-cold assay buffer consisting of 50 mM TRIS containing 5 mM EDTA (pH=7.4). 50 micrograms (μg) of membrane protein was added to each well of a 96-well assay plate along with test compound and [^3H]-N-α-methyl-histamine (1 nanomolar (nM) final assay concentration). Imetit was used as an assay positive control at varying concentrations. The plate was incubated for 30 min at room temperature. The assay was terminated by rapid filtration through a 96-well glass fiber filtration plate (GF/C) using a cell harvester (Perkin-Elmer). Captured membranes were washed three times with cold assay buffer and plates were dried at 50° C. 35 microliters (μL) of scintillation cocktail was added to each well and membrane-bound radioactivity was recorded using a TopCount 96-well plate scintillation counter (Perkin-Elmer).

male Sprague Dawley rats = assay: Blockade of RAMH-induced drinking assay; format: in vivo; settings: rat, 0.3 mg/kg PO, RAMH 3 mg/kg SC, drinking 20 min
Description: When administered to rodents, H3 agonists such as R-α-methyl-histamine (RAMH) induce a drinking response that is sensitive to reversal with an H3 antagonist. Blockade of RAMH-induced drinking can therefore be utilized as an in vivo assay for functional H3 antagonist activity. In this assay, male Sprague Dawley rats (250-350 g) were housed three per cage and maintained under a reverse 12 h light cycle (lights off at 1130 h). At 1030 h on the day of test, rats were individually housed in new cages and food was removed. 120 min later, rats were administered test article (vehicle or H3 antagonist, 0.3 mg/kg PO). 30 min later, water was removed, and RAMH (vehicle or RAMH 3 mg/kg salt SC) was administered. 10 min after administration of RAMH, weighed water bottles were placed in the cages, and drinking was allowed for 20 min. Water consumption was determined for each animal by weighing each bottle to the nearest 0.1 g. Data is expressed as percentage reduction in water intake according to the following formula:
[1−[(ANTAGONIST/RAMH)−(VEHICLE/RAMH)/(VEHICLE/RAMH)−(VEHICLENEHICLE)]]*100

[1] = target: T1, human histamine H3-receptor (Homo sapiens, UniProt Q9Y5N1); assay: Human histamine H3-receptor binding assay, MDS Pharma Services (Taiwan), Catalogue No. 239810
T1 construct: purchased MDS Pharma Services (Taiwan) 239810
Description: Compounds of the invention were tested for their ability to bind to the human histamine H3-receptor using the MDS Pharma Services (Taiwan) assay, Catalogue No. 239810.

Male Sprague-Dawley rats = assay: Rat polysomnography (EEG/EMG wakefulness); format: in vivo; settings: over 1 h after oral administration at 0.6 mg/kg
Description: Animals: Male Sprague-Dawley rats (225-350 g) (Harlan, San Diego, Calif.) were singly housed and maintained in a humidity—(30-70%) and temperature—(20-22° C.) controlled facility on a 12 h:12 h light/dark cycle (lights on at 6:30 A.M.) with free access to food (Harlan-Teklad Western Res., Orange, Calif., Rodent Diet 8604) and water. Rats were allowed at least three days of habituation to the animal facility before surgery.
Rats were anaesthetized with a ketamine/xylazine mixture, and surgically prepared for
EEG and EMG recording. After 2-3 weeks of post-surgical recovery, rats were habituated to polypropylene test cages for at least three days. On test days, the rats were placed in the test chambers and habituated overnight. At 10 am the next day, the rats were administered the test compound, connected to the recording apparatus, and placed back into the test chambers for 3 h.
EEG and EMG data were digitized and stored in 10 s epochs over the three hour test period. […] […] Percent increase in wakefulness was then derived for each rat.

Chain of Histamine H3-receptor (Q9QYN8 1-397 isoform Q9QYN8-3): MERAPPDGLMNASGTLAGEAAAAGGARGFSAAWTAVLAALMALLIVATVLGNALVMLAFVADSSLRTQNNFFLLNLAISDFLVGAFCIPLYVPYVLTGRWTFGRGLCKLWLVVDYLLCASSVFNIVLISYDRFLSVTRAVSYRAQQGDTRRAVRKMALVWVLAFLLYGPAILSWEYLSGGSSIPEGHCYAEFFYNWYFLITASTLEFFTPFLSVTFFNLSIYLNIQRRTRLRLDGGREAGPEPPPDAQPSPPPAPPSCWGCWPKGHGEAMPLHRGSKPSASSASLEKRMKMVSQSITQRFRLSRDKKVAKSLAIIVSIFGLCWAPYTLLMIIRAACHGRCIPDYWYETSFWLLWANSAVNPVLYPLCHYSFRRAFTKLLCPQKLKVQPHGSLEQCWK
T1 sequence (Q9Y5N1 whole entry): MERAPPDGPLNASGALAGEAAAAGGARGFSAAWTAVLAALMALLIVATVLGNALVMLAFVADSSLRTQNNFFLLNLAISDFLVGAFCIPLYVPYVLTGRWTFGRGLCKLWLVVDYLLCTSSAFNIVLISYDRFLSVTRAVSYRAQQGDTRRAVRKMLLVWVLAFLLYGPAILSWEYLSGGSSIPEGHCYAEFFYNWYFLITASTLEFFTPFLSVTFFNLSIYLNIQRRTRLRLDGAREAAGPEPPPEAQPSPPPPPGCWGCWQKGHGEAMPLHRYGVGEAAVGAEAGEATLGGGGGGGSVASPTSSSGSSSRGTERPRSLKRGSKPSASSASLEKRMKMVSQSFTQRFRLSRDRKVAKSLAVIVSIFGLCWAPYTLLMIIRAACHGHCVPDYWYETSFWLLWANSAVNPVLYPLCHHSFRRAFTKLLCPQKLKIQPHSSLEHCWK

SMILES | Ki (Histamine H3-receptor) | % inhibition of RAMH-induced drinking (male Sprague Dawley rats) | also measured
C[C@@H]1CCCN1CCc1ccc(-c2ccc(S(C)(=O)=O)cc2)cc1 [Cmpd 1, (R)-1-[2-(4′-Methanesulfonyl-biphenyl-4-yl)-ethyl]-2-methyl-pyrrolidine] | 2.4 nM | – | –
CCS(=O)(=O)c1ccc(-c2ccc(CCN3CCC[C@H]3C)cc2)cc1 [Cmpd 2, (R)-1-[2-(4′-Ethanesulfonyl-biphenyl-4-yl)-ethyl]-2-methyl-pyrrolidine] | – | 82.6 ± 12.9% | –
COCCS(=O)(=O)c1ccc(-c2ccc(CCN3CCC[C@H]3C)cc2)cc1 [Cmpd 3, (R)-1-{2-[4′-(2-Methoxy-ethanesulfonyl)-biphenyl-4-yl]-ethyl}-2-methyl-pyrrolidine] | 3 nM | – | –
CCCS(=O)(=O)c1ccc(-c2ccc(CCN3CCC[C@H]3C)cc2)cc1 [Cmpd 5, (R)-2-Methyl-1-{2-[4′-(propane-1-sulfonyl)-biphenyl-4-yl]-ethyl}-pyrrolidine] | – | – | Ki [1]: 3.7 nM
C[C@@H]1CCCN1CCc1ccc(-c2ccc(S(=O)(=O)Cc3ccccc3)cc2)cc1 [Cmpd 6, (R)-2-Methyl-1-[2-(4′-phenylmethanesulfonyl-biphenyl-4-yl)-ethyl]-pyrrolidine] | 1.1 nM | – | –
C[C@@H]1CCCN1CCc1ccc(-c2ccc3c(c2)C(=O)CCS3(=O)=O)cc1 [Cmpd 7, 6-{4-[2-((R)-2-Methyl-pyrrolidin-1-yl)-ethyl]-phenyl}-1,1-dioxo-1λ^6-thiochroman-4-one] | – | 92.5 ± 15.8% | Ki [1]: 2.9 nM
COCCCS(=O)(=O)c1ccc(-c2ccc(CCN3CCC[C@H]3C)cc2)cc1 [Cmpd 8, (R)-1-{2-[4′-(3-Methoxy-propane-1-sulfonyl)-biphenyl-4-yl]-ethyl}-2-methyl-pyrrolidine] | 1.5 nM | – | –
C[C@@H]1CCCN1CCc1ccc(-c2ccc(S(=O)(=O)CCO)cc2)cc1 [Cmpd 10, 2-{4′-[2-((R)-2-Methyl-pyrrolidin-1-yl)-ethyl]-biphenyl-4-sulfonyl}-ethanol] | – | – | % Increase in wakefulness +/− s.e. (Male Sprague-Dawley rats): 46 ± 15%
C[C@@H]1CCCN1CCc1ccc(-c2ccc(S(=O)(=O)CCCO)cc2)cc1 [Cmpd 15, 3-{4′-(2-((R)-2-Methyl-pyrrolidin-1-yl)-ethyl]-biphenyl-4-sulfonyl}-propan-1-ol] | – | 58.8 ± 16.1% | –
C[C@@H]1CCCN1CCc1ccc(-c2cccc(S(=O)(=O)CCO)c2)cc1 [Cmpd 17, 2-{4′-[2-((R)-2-Methyl-pyrrolidin-1-yl)-ethyl]-biphenyl-3-sulfonyl}-ethanol] | 16 nM | – | –
